Laboratory results from PMC8400955 (Pharmaceuticals, 2021).
Values joined by “and” are separate entries in the source; they are usually repeats but may differ in a detail not shown here. Equal entries are not always repeated.

Experiments:
[1] = Plasma protein binding by equilibrium dialysis, rat; format: in vitro ADME; conditions: plasma (EDTA-K2 as anticoagulant)
Procedure: (§1) The in vitro binding of ZB716 to plasma proteins was determined by equilibrium dialysis technique in mouse, rat, dog, monkey, and human plasma (EDTA-K2 as anticoagulant), over the concentration range of 0.1–10 μM. The free concentration of ZB716 was below the lower limit of quantitation at 0.1, 1, and 10 μM in human, monkey, dog, rat, and mouse plasma.
(§2) The equilibrium dialysis method was used to investigate the in vitro binding of ZB716 to human, monkey, dog, rat, and mouse plasma proteins. The dialysis phosphate buffer solution (100 mM, pH 7.4) and plasma samples containing 0.1, 1, and 10 μM of ZB716 were added to separate chambers of dialysis wells of the HTDialysis device. The dialysis plate was placed in an incubator at 37 °C with 5% CO2 at approximately 100 rpm for 6 h. After incubation, the seal was removed, and 50 μL each of post-dialysis samples was pipetted from both the buffer and plasma chambers into fresh 96-well plates. The samples were analyzed via UPLC–MS/MS. The bound fraction, unbound fraction, recovery (%), and remaining (%) were calculated by Equations (2)–(5):%Unbound = (Conc.buffer chamber/Conc.plasma chamber) × 100(2) %Bound = 100% − %Unbound (3) %Recovery = (Conc.buffer chamber + Conc.plasma chamber)/Conc.Total sample × 100 (4) %Remaining = Conc.6h/Conc.0h × 100 (5)

rat plasma proteins = test: as above; format: in vitro ADME; conditions: for Remaining: 6 h
Procedure: as §1, §2

[2] = Single-dose PK and bioavailability in dogs; format: in vivo; conditions: beagle, dog, plasma; for bioavailability: PO 6 mg/kg/day vs IV 2 mg/kg/day; for AUC(0-t) / Cmax / Tmax: single dose
Procedure: […] […] All groups had one male and one female animal. Plasma samples were collected at various timepoints, through to 24 h post-dose, and analyzed for ZB716.
Four-to-six-week-old Sprague Dawley rats (Crl: CD (SD)) (SPF/VAF) were purchased from Beijing Vital River Laboratory Animal Technology, Co. Ltd.). Six-month-old beagle dogs were purchased from Beijing Marshall Biotechnology Co. Ltd. Animals were quarantined/acclimated for 2–6 weeks prior to dose initiation. Both Sprague Dawley rats and beagle dogs were given oral administration of ZB716 (20% PG, 5% Solutol, and 75% of 40% HP-β-CD in water) at different dose levels. After treatment with the test articles, whole blood was collected from each study animal by puncture of the tail vein (0.4 mL of whole blood from rats) and/or the peripheral vein (0.6 mL of whole blood from dogs) into tubes containing K2EDTA at each timepoint: pre-dose, and 0.5, 1, 2, 4, 8, and 24 h post-dose. The plasma samples were divided into 2 aliquots (approximately equal in volume) and stored frozen at −75 ± 15 °C within 2 h of the collection until analysis at Pharmaron, China.
The stock solution of ZB716 (5.0 mg/mL) and ZB716-d6 (1 mg/mL) in ACN:DI Water = 1:1 was prepared and stored at −20 ± 5 °C. The desired serial concentrations of working reference analyte solutions were achieved by diluting a stock analyte solution with 50% acetonitrile (0.1% formic acid) in water solution. The bioanalytical LC–MS/MS method was validated for quantitative determination of ZB716 in Sprague Dawley rat plasma and beagle dog plasma, with acceptable selectivity, sensitivity, calibration curve, precision, and accuracy. This method is applicable for the determination of ZB716 in Sprague Dawley rat plasma and beagle dog plasma, with a lower limit of quantification of 20.0 ng/mL, and an upper limit of quantification of 10,000 ng/mL.
Five microliters of diluted supernatant was injected into the LC–MS/MS system (Shimadzu LC30AD HPLC system with a SynergiTM 4 μm Fusion-RP 80 Å (50 × 2 mm) column using gradient elution and a Triple Quad 5500 mass spectrometer) for quantitative analysis. The mobile phases used were 0.1% formic acid in deionized water and 0.1% formic acid in acetonitrile. The pharmacokinetic parameters T1/2 (the biological half-life), Cmax (maximal concentration), Tmax (time at which Cmax is observed), and AUC (area under the plasma concentration–time curve) were calculated from the plasma concentration versus time data using WinNonlin (Phoenix^TM, version 8.1, Mountain View, CA, USA). All PK studies were conducted by Pharmaron in Beijing, China.

CYP3A4 = CYP3A4 (Homo sapiens, UniProt P08684); test: CYP phenotyping, recombinant CYP3A4
Procedure: Bactosomes prepared from E. coli that heterologously expressed individual human CYP isoforms together with human CYP reductase were obtained from CYPEX LTD (Scotland, UK), and stored at −80 °C prior to use. […] Timepoints were taken at 0, 5, 10, 15, 20, and 30 min. Substrate disappearance was used to calculate intrinsic clearance (Clint) and half-life (t1/2). All incubations were performed in triplicate. […] The chemical inhibitors for CYP1A2, 2A6, 2B6, 2C8, 2C9, 2C19, 2D6, and 3A4 were furafylline, tranylcypromine, ticlopidine, montelukast, sulfaphenazole, N-3-benzylnirvanol, quinidine, and ketoconazole, respectively. Timepoints were collected at 0, 15, 30, 45, and 60 min, and the remaining percentage of the parent drug at each timepoint was calculated (the calculation details are available in the Supplementary Materials). All incubations were performed in triplicate.
The slope, k, was determined by linear regression of the natural logarithm of percent parent disappearance vs. incubation time curve. Peak areas for test article and internal standard were determined from extracted ion chromatograms. The peak area ratio was used to calculated for the results.
The half-life value (t1/2 rCYPi) was determined from the slope value:
Conversion of the t1/2 rCYPi (in min) into the intrinsic clearance (Clint rCYPi in μL/min/pmol) was done using the following equation:
1.3.2 For inhibition ratio (%) (Liver microsomes with and without inhibitors) The slope value, k, was determined by linear regression of the natural logarithm of the remaining percentage of the parent drug vs. incubation time curve. If the turnover was not significant (T-test with p<0.05 was not obtained) and the percentage remaining at last time point was ≥ 80%, the k value was

CYP1A2 = test: CYP induction (enzyme activity) in cryopreserved human hepatocytes, CYP1A2; conditions: for fold induction at 72 h, 0.15 µM / fold induction at 72 h, 1.5 µM / fold induction at 72 h, 5 µM / fold induction at 72 h, 15 µM: human, plated cryopreserved human hepatocytes
Procedure: The UPLC–MS/MS (SHIMADZU, LC-30AD) equipped with waters Xselect®HSS T3 2.5 μm (2.1 × 50 mm) was used to detect the marker metabolites in the enzyme activity assay. The fold-induction enzyme activity was determined using the ratio calculation (the calculation details are available in the Supplementary Materials).
CYP activity was expressed as pmol/min/million cells where pmol was defined as the amount of metabolite formed during the reaction. […] The fold-induction enzyme activity was determined by the ratio:
Fold of induction = CYP activity(induced) / CYP activity(vehicle)
% of positive control = (𝑪𝒀𝑷 𝒂𝒄𝒕𝒊𝒗𝒊𝒕𝒚(𝒊𝒏𝒅𝒖𝒄𝒆𝒅)ି 𝑪𝒀𝑷 𝒂𝒄𝒕𝒊𝒗𝒊𝒕𝒚(𝑫𝑴𝑺𝑶))(𝑪𝒀𝑷 𝒂𝒄𝒕𝒊𝒗𝒊𝒕𝒚(𝒑𝒐𝒔𝒊𝒕𝒊𝒗𝒆 𝒄𝒐𝒏𝒕𝒓𝒐𝒍)ି 𝑪𝒀𝑷 𝒂𝒄𝒕𝒊𝒗𝒊𝒕𝒚(𝑫𝑴𝑺𝑶))х 𝟏𝟎𝟎 Based on the enzyme activity, a minimum of 2-fold increase of a response compared to vehicle control and ≥ 20% of the positive control was considered as the cutoff for a positive signal in in vitro induction

CYP3A4, sequence (P08684 whole entry): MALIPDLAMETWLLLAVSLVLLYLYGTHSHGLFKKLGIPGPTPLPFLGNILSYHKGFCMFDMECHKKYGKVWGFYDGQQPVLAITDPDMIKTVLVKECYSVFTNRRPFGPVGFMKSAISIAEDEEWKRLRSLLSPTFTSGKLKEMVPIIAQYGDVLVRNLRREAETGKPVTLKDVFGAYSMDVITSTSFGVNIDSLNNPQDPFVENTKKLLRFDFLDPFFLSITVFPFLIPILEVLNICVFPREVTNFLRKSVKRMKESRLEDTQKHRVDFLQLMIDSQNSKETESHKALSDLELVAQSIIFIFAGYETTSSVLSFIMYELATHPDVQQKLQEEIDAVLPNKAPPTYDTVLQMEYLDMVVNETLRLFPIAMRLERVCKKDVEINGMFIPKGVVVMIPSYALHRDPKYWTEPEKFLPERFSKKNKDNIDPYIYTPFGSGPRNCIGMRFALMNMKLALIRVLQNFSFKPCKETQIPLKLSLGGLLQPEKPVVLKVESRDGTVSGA

C[C@]12CC[C@@H]3c4ccc(B(O)O)cc4C[C@@H](CCCCCCCCC[S+]([O-])CCCC(F)(F)C(F)(F)F)[C@H]3[C@@H]1CC[C@@H]2O (stereo partly shown) [ZB716, fulvestrant-3-boronic acid]
recovery at 6 h, 0.1 μM ([1]; pH 7.4, 0.1 μM): < 94.4%
recovery at 6 h, 1 μM ([1]; pH 7.4, 1 μM): < 94.9%
recovery at 6 h, 10 μM ([1]; pH 7.4, 10 μM): < 82.1%
Bound (rat plasma proteins; 0.1 μM): >97.7%
Unbound (rat plasma proteins; 0.1 μM): <2.35%
Remaining (rat plasma proteins; 0.1 μM): 83.9 ± 8.2%
Bound (rat plasma proteins; 1 μM): >99.8%
Unbound (rat plasma proteins; 1 μM): <0.216%
Remaining (rat plasma proteins; 1 μM): 91.1 ± 2.1%
Bound (rat plasma proteins; 10 μM): >99.97%
Unbound (rat plasma proteins; 10 μM): <0.0281%
Remaining (rat plasma proteins; 10 μM): 84.7 ± 2.0%
bioavailability ([2]; female, F): 6.74%
AUC(0-t) ([2]; female, IV 2 mg/kg/day, F): 4310 ng·h/mL
Cmax ([2]; female, IV 2 mg/kg/day, F): 2710 ng/mL
Tmax ([2]; female, IV 2 mg/kg/day, F): 5 min
AUC(0-t) ([2]; female, PO 6 mg/kg/day, F): 872 ng·h/mL
Cmax ([2]; female, PO 6 mg/kg/day, F): 213 ng/mL
Tmax ([2]; female, PO 6 mg/kg/day, F): 30 min
AUC(0-t) ([2]; female, PO 30 mg/kg/day, F): 3460 ng·h/mL
Cmax ([2]; female, PO 30 mg/kg/day, F): 964 ng/mL
Tmax ([2]; female, PO 30 mg/kg/day, F): 60 min
AUC(0-t) ([2]; female, PO 100 mg/kg/day, F): 5840 ng·h/mL
Cmax ([2]; female, PO 100 mg/kg/day, F): 957 ng/mL
Tmax ([2]; female, PO 100 mg/kg/day, F): 30 min
bioavailability ([2]; male, M): 6.18%
AUC(0-t) ([2]; male, IV 2 mg/kg/day, M): 3030 ng·h/mL
Cmax ([2]; male, IV 2 mg/kg/day, M): 2160 ng/mL
Tmax ([2]; male, IV 2 mg/kg/day, M): 5 min
AUC(0-t) ([2]; male, PO 6 mg/kg/day, M): 563 ng·h/mL
Cmax ([2]; male, PO 6 mg/kg/day, M): 157 ng/mL
Tmax ([2]; male, PO 6 mg/kg/day, M): 30 min
AUC(0-t) ([2]; male, PO 30 mg/kg/day, M): 5520 ng·h/mL
Cmax ([2]; male, PO 30 mg/kg/day, M): 988 ng/mL
Tmax ([2]; male, PO 30 mg/kg/day, M): 240 min
AUC(0-t) ([2]; male, PO 100 mg/kg/day, M): 7500 ng·h/mL
Cmax ([2]; male, PO 100 mg/kg/day, M): 1140 ng/mL
Tmax ([2]; male, PO 100 mg/kg/day, M): 120 min
half-life at 2 µM (CYP3A4; human): 5.91 ± 0.39 min
Clint (CYP3A4; recombinant CYP3A4, 2 µM ZB716): 2.35 µL/min/pmol CYP and 2.35 ± 0.15 µL/min/pmol CYP
Percent of Control (CYP1A2; donor one, 0.15 µM): 2.92%
Percent of Control (CYP1A2; donor one, 1.5 µM): 18.4%
Percent of Control (CYP1A2; donor one, 5 µM): 73.6%
Percent of Control (CYP1A2; donor one, 15 µM): 80.0%
Percent of Control (CYP1A2; donor three, 0.15 µM): 3.78%
Percent of Control (CYP1A2; donor three, 1.5 µM): 45.0%
Percent of Control (CYP1A2; donor three, 5 µM): 41.6%
Percent of Control (CYP1A2; donor three, 15 µM): 20.3%
Percent of Control (CYP1A2; donor two, 0.15 µM): 0.777%
Percent of Control (CYP1A2; donor two, 1.5 µM): 8.38%
Percent of Control (CYP1A2; donor two, 5 µM): 17.4%
Percent of Control (CYP1A2; donor two, 15 µM): 12.6%
fold induction at 72 h, 0.15 µM (CYP1A2; donor one, 0.15 µM): 1.24 ± 0.1
fold induction at 72 h, 1.5 µM (CYP1A2; donor one, 1.5 µM): 2.52 ± 0.17
fold induction at 72 h, 5 µM (CYP1A2; donor one, 5 µM): 7.09 ± 0.78
fold induction at 72 h, 15 µM (CYP1A2; donor one, 15 µM): 7.62 ± 1.63
fold induction at 72 h, 0.15 µM (CYP1A2; donor three, 0.15 µM): 1.2 ± 0.22
fold induction at 72 h, 1.5 µM (CYP1A2; donor three, 1.5 µM): 3.42 ± 0.2
fold induction at 72 h, 5 µM (CYP1A2; donor three, 5 µM): 3.24 ± 0.53
fold induction at 72 h, 15 µM (CYP1A2; donor three, 15 µM): 2.09 ± 0.49
fold induction at 72 h, 0.15 µM (CYP1A2; donor two, 0.15 µM): 1.11 ± 0.05
fold induction at 72 h, 1.5 µM (CYP1A2; donor two, 1.5 µM): 2.17 ± 0.03
fold induction at 72 h, 5 µM (CYP1A2; donor two, 5 µM): 3.44 ± 0.18
fold induction at 72 h, 15 µM (CYP1A2; donor two, 15 µM): 2.77 ± 0.34
